According to US20230020329A1, “Annelated 9-hydroxy-1,8-dioxo-1,3,4,8-tetrahydro-2H-pyrido[1,2-a]pyrazine-7-carboxamides as HIV integrase inhibitors, methods of preparation and application thereof” (priority 2019, published 2023):
In brackets after ≈: the same amount, converted by molar mass. Like-named read-outs stand apart in the source and are kept apart here.

Assays:
[1] = Thermodynamic (shake-flask) solubility; type: physicochemical; conditions: for solubility at 24 h: thermodynamic from solid
Description: The test compound of general formula 1 or 2 (2 mg) was weighed into a glass vial. The pION universal buffer (0.5 ml) with pH 7.4 or deionized water was added to appropriate vials. The vials were tightly closed with a lid, placed on a rotating shaker, and incubated for 24 hours to balance the solution and the solid phase at the saturation point. Each resulting solution (200 μl) was taken (in duplicate) from the vials, placed in a 96-well MultiScreen Solubility Filter Plate (Millipore), and filtered using vacuum ([…]) into a polypropylene plate with a U-shaped bottom. If necessary, the filtrates were diluted with an appropriate buffer (water). Then, 120 μl of the filtarate (or a diluted filtrate) was transferred to a 96-well plate with a UV-transparent bottom and 60 μl/well of acetonitrile and 20 μl/well of DMSO were added and thoroughly mixed with a multichannel pipette (acetonitrile and DMSO were added to obtain a required composition of calibration standards, as described below). The optical density of the resulting solutions was measured on a multifunction Infinite 200 PRO plate reader in the wavelength range from 240 nm to 400 nm in steps of 10 nm. The value of ODλ for solutions was assessed at a wavelength chosen for plotting a calibration curve.
The concentration of a substance in the solution after the solubility test was evaluated using a calibration curve. A stock solution in DMSO with a concentration of 2 mg/ml was prepared from a separate sample. […] The range of final concentrations of the calibration curve was 0.2; 0.1; 0.05; 0.025; 0.0125; 0.00625, and 0 mg/ml. Calibration solutions were prepared in a 96-well UV plate as follows: 20 μl of a 10-fold stock solution in DMSO, 60 μl of acetonitrile, and 120 μl of the appropriate buffer were added to the well and stirred. The optical density of the resulting solutions was measured on a multifunction Infinite 200 PRO plate reader in the wavelength range from 240 nm to 400 nm with a step of 10 nm. The optimal wavelength typically corresponding to the absorption maximum was chosen, and a linear dependence of OD at a given wavelength on the concentration of the compound was obtained.
The concentration of the compound in the filtrate after the solubility test was calculated according to the formula:
shake-flask solubility=(ODλfiltrate−ODλblank)/(slope×1.67×filtrate dilution)
wherein slope means the slope of the calibration curve; 1.67 is the filtrate acetonitrile+DMSO dilution ratio; filtrate dilution is an additional dilution of the filtrate, if applicable.

[2] = tested on: HIV-1 (NL4.3 strain) carrying the GFP reporter gene (NL4.3-GFP); assay: HIV-1 NL4.3-GFP infection of SupT1 cells; type: cell-based; conditions: Human immunodeficiency virus 1, SUP-T1, read-out: Inhibitory activity (EC50) of HIV-1 (NL4.3 strain) carrying the GFP reporter gene
Description: 6. Inhibitory Activity of HIV-1 (NL4.3 Strain) Carrying the GFP Reporter Gene (NL4.3-GFP) in the SuPT1 Cell Line.
The evaluation was done by RetroVirox Inc. (San Diego, Calif., USA). SupT1 cells were infected with the HIV NL4.3 strain carrying the green fluorescent protein gene (NL4.3-GFP). The virus sample was produced by transfection of 293T cells with proviral DNA. The sample was frozen 48 hours after transfection and stored until use. To enhance the efficiency of infection, a suspension of SupT1 cells was precipitated from the infectious mixture by centrifugation. Test substances were added to the cells immediately before adding the virus. After 2 hours of incubation, the infectious mixture was replaced with a fresh culture medium containing test samples. The effectiveness of the infection was determined after 45 hours by counting the percentage of fluorescent cells in comparison with uninfected cell cultures. The cytotoxicity of the test compounds was determined in parallel on the same, but not infected, SupT1 cell line using the XTT reagent. Serial tenfold dilutions of the samples (starting from 10 μM when determining antiviral activity or from 100 μM for determining cytotoxicity). As a negative control, 0.1% DMSO was used. The values of EC50 were calculated. The quality of the tests was determined using the following controls: signal-to-noise ratio, integrase inhibitor raltegravir (1 μM), and test reproducibility.

[3] = Pharmacokinetics in rat plasma, IV and oral; type: in vivo, male Sprague-Dawley rats
Description: The research was carried out on male Sprague-Dawley rats obtained from Charles River Laboratories (Germany). […] The age of the animals at the time of administration was 8-10 weeks. The animals were pre-catheterized so that all blood samples during the study of each substance could be taken from the same animals. Each substance was tested in 3 animals at each route of administration. The solution of test substances with a concentration of 0.2 mg/ml in 10% DMSO/10% Solutol/80% 0.05M N-methylglucamine was administered to rats intravenously in the tail vein at a dose of 1 mg/kg. Blood samples were collected at 5, 15, 30 min, 1, 2, 4, 8, and 24 hours after administration. Intragastric administration involved gavage using a solution with a concentration of 0.5 mg/ml in 0.5% methylcellulose at a dose of 5 mg/kg. Blood samples were collected at 15, 30 min, 1, 2, 4, 8, and 24 hours after administration. Blood (0.2 ml) was collected in polypropylene tubes containing 20 μl of 5% NaEDTA. Blood plasma was separated by centrifugation at 1500×g for 10 min and stored until testing at a temperature of −80° C. A pure acetonitrile-water (1:1) mixture (5 μl) was added to 45 μl of test samples. The samples were vortexed thoroughly for 10 seconds. Tolbutamide (100 μl) chilled to +4° C. (200 ng/ml in MeCN) was added to the samples and the mixture was vortexed. The samples were precipitated on ice at +4° C. for 15 minutes and then centrifuged at 2700 g for 10 min at +4° C. Supernatants (100 μl each) were transferred to a blank plate for HPLC/MS/MS analysis. The HPLC/MS/MS analysis was performed using an Agilent 1290 Infinity system coupled to an AB Sciex QTrap 6500 mass spectrometer. Pharmacokinetic analysis of plasma concentration vs time data was performed by a model-independent method using the Phoenix™ WinNonlin® 6.3 software (Pharsight Corp.). […]

[4] = aqueous buffer, pION universal buffer pH 7.4, 24 h, read-out: Solubility, pH 7.4, value

C[C@H]1CO[C@@H]2Cn3cc(C(=O)NCc4ncc(F)cc4F)c(=O)c(O)c3C(=O)N12 [Compound 1.1.17, (3S,11aR)-6-hydroxy-N-[(3,5-difluoropyridin-2-yl)methyl]-3-methyl-5,7-dioxo-2,3,5,7,11,11a-hexahydro[1,3]oxazolo[3,2-a]pyrido[1,2-d]pyrazine-8-carboxamide]
solubility at 24 h [1, 4]: 196 µg/mL (≈ 482 µM) | solubility at 24 h ([1]; deionized water, 24 h, read-out: Solubility, water, value): 131 µg/mL (≈ 322 µM) | EC50 [2]: 1.5 nM

C[C@H]1CO[C@@H]2Cn3cc(C(=O)NCc4ccc(F)nc4F)c(=O)c(O)c3C(=O)N12 [Compound 1.1.19, (3S,11aR)-6-hydroxy-N-[(2,6-difluoropyridin-3-yl)methyl]-3-methyl-5,7-dioxo-2,3,5,7,11,11a-hexahydro[1,3]oxazolo[3,2-a]pyrido[1,2-d]pyrazine-8-carboxamide]
solubility at 24 h [1, 4]: 232 µg/mL (≈ 571 µM) | Solubility, water, value ([1]; deionized water, 24 h): 269 µg/mL (≈ 662 µM) | solubility at 24 h ([1]; deionized water, water, read-out: Solubility in water): 269 µg/mL (≈ 662 µM) | concentration at 8 h ([3]; male, Sprague-Dawley, rat plasma, oral 5 mg/kg, 8 h, read-out: C8 h): 7910 ng/mL | concentration at 24 h ([3]; male, Sprague-Dawley, rat plasma, oral 5 mg/kg, 24 h, read-out: C24 h): 4440 ng/mL | AUCINF ([3]; rat plasma, IV 1 mg/kg): 367.627 µg·h/mL | AUClast ([3]; rat plasma, IV 1 mg/kg): 202.189 µg·h/mL | Cmax ([3]; rat plasma, IV 1 mg/kg): 18550 ng/mL | MRTlast ([3]; rat plasma, IV 1 mg/kg): 9.46 h | T1/2 ([3]; rat plasma, IV 1 mg/kg): 21.2 h | Tmax ([3]; rat plasma, IV 1 mg/kg): 0.08 h | kel ([3]; rat plasma, IV 1 mg/kg): 0.03 h⁻¹ | AUCINF ([3]; rat plasma, oral 5 mg/kg): 282.07 µg·h/mL | AUClast ([3]; rat plasma, oral 5 mg/kg): 176.506 µg·h/mL | Cmax ([3]; rat plasma, oral 5 mg/kg): 11488 ng/mL | MRTlast ([3]; rat plasma, oral 5 mg/kg): 9.42 h | T1/2 ([3]; rat plasma, oral 5 mg/kg): 16.5 h | Tmax ([3]; rat plasma, oral 5 mg/kg): 3 h | kel ([3]; rat plasma, oral 5 mg/kg): 0.04 h⁻¹ | F (bioavailability) ([3]; rat, oral 5 mg/kg vs IV 1 mg/kg, F=(AUClast PO/5·AUClast IV)·100): 17.5% | EC50 [2]: 1.9 nM
